Source: patent US6949682B2, “Cinnamaldehyde derivatives inhibiting growth of tumor cell and regulating cell cycle, preparations and pharmaceutical compositions thereof” (Korea Research Institute of Bioscience and Biotechnology, priority 2003, dated 2005)

Legend:
SW620 colon cancer cell [1] = assay: Cell cycle analysis (Experimental Example 1), SW620; format: cell-based, human; conditions: SW620, 1 μM, 48 hours, percentage of cells in G2/M
Method: (§1) Colon cancer cell of human SW620(ATCC) or HCT116 (ATCC) was transferred to T25 flask(culture 7.5 ml) by RPMI1640 (Gibco/BR) medium or DMEM medium (Gibco/BR) containing 10% FBS (fetal bovine serum), respectively. Thereafter the cell was incubated for 12 hours at 37° C. in incubator. After the cell was incubated for 12 hours, 7.5 μl of DMSO was added to a culture used as control group, for the final concentration to be 0.1%. In order to use in experiment, samples of various concentrations were prepared by dissolving the cinnamaldehyde derivatives of the present invention in DMSO. 7.5 μl of the prepared samples was added to a culture used as experimental group. Cell of control or experimental group was incubated for 48 hours.
(§2) For cell cycle analysis, incubated cell was removed from medium. Thereafter the incubated cell was separated from the flask by trypsin. Thus the cell was centrifuged at 300 g for 5 min. The cell was washed with phosphate buffer solution (PBS) to remove the residue medium from the cell. 3 ml of ethanol (70%) was added to the cell. The cell was fixed by being positioned at −20° C. for 12 hours. The fixed cell was centrifuged at 300 g for 3 min and washed with the cold PBS for two times to remove residual ethanol. The cell solution prepared by adding 500 μl of PBS to the cell was well mixed to produce the homogeneous state. 100 μg/ml RNase A 50 μl was added to the cell solution, thereafter the resulting cell solution was positioned at 37° C. for 30 min. The chromosomal DNA was stained by further adding 1 mg/ml propidium iodide (soluble in PBS) thereto.
(§3) Distribution of cell cycle of 20,000 stained cells were measured by using Becton-Dickinson FACS caliber (San Jose, Calif., USA).

HCT116 colon cancer cell [2] = assay: Cell cycle distribution (Experimental Example 2), HCT116; format: cell-based, human; conditions: for Amount of cell (%) G0-G1 / Amount of cell (%) G2-M / Amount of cell (%) S: HCT116, 1 μM, 48 hours; for Holding of cancer cell in stage G2/M (in words): HCT116 and SW620, 1 μM, summary of table 3
Method: (§4) SW620 or HCT116 as colon cancer cell was inoculated in 100 mm plate to the amount of 2×10^6 cells. Then, cinnamaldehyde derivative of the present invention (compound 16 or compound 35) was added to the plate in the concentration of 1 μM. Thereafter, the colon cancer cell was incubated for 48 hours. Trypsin was added to the plate, to separate the colon cancer cell from the plate. And 5 ml of PBS (phosphate buffer solution) was added to the plate, to prepare the cell mixture. The cell mixture was centrifuged at 1,500 rpm for 5 min for two times, to remove trypsin from the mixture. The residue was washed with PBS for two times, thus the resulting supernatant was discarded. 1 ml of PBS and 3˜5 ml of cool ethanol(70%) was added to the resulting residue. The cell was fixed by being positioned at −20° C. for 12 hours. The fixed cell was centrifuged at 1,500 rpm for 5 min and washed with the cool PBS for two times to remove residual ethanol. RNase(10 μg/ml) was added to the fixed cell, to remove RNA. And DNA of the fixed cell was dyed with PI(propidium iodide, 50 μg/ml). After the fixed cell was positioned at 37° C. for 30 min, cell cycles of 20,000 cells were measured by using Becton-Dickinson FACS caliber (San Jose, Calif., USA).
(§5) For control group, the same procedure was accomplished except that DMSO was used in place of the cinnamaldehyde derivative.

HCT116 colon cancer cell [3] = assay: Growth inhibition of HCT116 colon cancer cell (GI50); format: cell-based, human; conditions: Homo sapiens, HCT-116; concentration at which growth of HCT116 colon cancer cell was inhibited to the 50%
Method: as §1
(§6) HCT116 GI50 (μM) and SW620 GI50 (μM) mean to be the concentrations at which growth of HCT116 and SW620 colon cancer cell was inhibited to the 50%, respectively.

SW620 colon cancer cell [4] = assay: Cell cycle distribution (Experimental Example 2), SW620; format: cell-based, human; conditions: SW620, 1 μM, 48 hours
Method: as §4, §5

SW620 colon cancer cell [5] = assay: Growth inhibition of SW620 colon cancer cell (GI50); format: cell-based, human; conditions: Homo sapiens, SW-620; concentration at which growth of SW620 colon cancer cell was inhibited to the 50%
Method: as §1, §6

HCT116 colon cancer cell [6] = assay: Cell cycle analysis (Experimental Example 1), HCT116; format: cell-based, human; conditions: HCT116, 1 μM, 48 hours, percentage of cells in G2/M
Method: as §1, §2, §3

SMILES	melting point	G2/M at 1 μM(%) SW620 (SW620 colon cancer cell [1])	Amount of cell (%) G0-G1 (HCT116 colon cancer cell [2])	Amount of cell (%) G2-M (HCT116 colon cancer cell [2])	Amount of cell (%) S (HCT116 colon cancer cell [2])	Holding of cancer cell in stage G2/M (in words) (HCT116 colon cancer cell [2])	GI50 (HCT116 colon cancer cell [3])	Amount of cell (%) G0-G1 (SW620 colon cancer cell [4])	Amount of cell (%) G2-M (SW620 colon cancer cell [4])	Amount of cell (%) S (SW620 colon cancer cell [4])	GI50 (SW620 colon cancer cell [5])	G2/M at 1 μM(%) HCT116 (HCT116 colon cancer cell [6])
O=CC(=Cc1ccccc1OCc1ccccc1)C(C=O)=Cc1ccccc1OCc1ccccc1 [Compound 16, 2,3-bis-(2-benzyloxy-benzylidene)succinaldehyde]	120 to 121 °C	80%	22.36%	43.29%	34.35%	held a cancer cell in the stage G2/M	1.41 µM	6.64%	80.21%	13.15%	0.63 µM	43%
O=CC(=Cc1ccc(OC(=O)c2ccc(Br)cc2)cc1)C(C=O)=Cc1ccc(OC(=O)c2ccc(Br)cc2)cc1 [Compound 34, 2,3-bis-(4-(4-bromobenzoyloxy)benzylidene)succinaldehyde]	223 to 225 °C	62%					30.4 µM				16.7 µM	60%
CN1CCN(c2ccccc2/C=C(C=O)/C(C=O)=C/c2ccccc2N2CCN(C)CC2)CC1 [Compound 35, 2,3-bis-(2-(N-methylpiperazine)benzylidene)succinaldehyde]	218 to 220 °C	79%	15.52%	52.11%	32.37%	held a cancer cell in the stage G2/M	5.23 µM	8.74%	78.53%	12.73%	0.72 µM	52%
O=CC(=Cc1cccc(OCc2ccc(Cl)cc2)c1)C(C=O)=Cc1cccc(OCc2ccc(Cl)cc2)c1 [Compound 36, 2,3-bis-(3-(4-chlorobenzyloxy)-benzylidene)succinaldehyde]	193 to 194 °C	42%					7.5 µM				6.3 µM	41%
COc1ccc(COc2cccc(C=C(C=O)C(C=O)=Cc3cccc(OCc4ccc(OC)cc4)c3)c2)cc1 [Compound 37, 2,3-bis-(3-(4-methoxybenzyloxy)-benzylidene)succinaldehyde]	117 to 119 °C	46%					3.4 µM				5.1 µM	35%
O=CC(=Cc1ccc(OCc2ccc(Cl)cc2)cc1)C(C=O)=Cc1ccc(OCc2ccc(Cl)cc2)cc1 [Compound 38, 2,3-bis-(4-(4-chlorobenzyloxy)-benzylidene)succinaldehyde]	208 to 209 °C	53%					3.8 µM				2.2 µM	44%
COc1ccc(COc2ccc(C=C(C=O)C(C=O)=Cc3ccc(OCc4ccc(OC)cc4)cc3)cc2)cc1 [Compound 39, 2,3-bis-(4-(4-methoxybenzyloxy)-benzylidene)succinaldehyde]	218 to 220 °C	48%					3.7 µM				6.8 µM	38%
